The experiment relates to Tumor Necrosis Factor alpha (TNFα). Put plainly: Lipopolysaccharide (LPS)-induced serum TNFα in rats (oral dosing 2 h before LPS, serum ELISA). It counts as in vivo. Also noted: unit not given here. As to conditions: LPS 0.01 mg/Kg intraperitoneal, male Lewis rats. The method, then:
The purpose of this study was to examine the ability of compound 1 to suppress lipopolysaccharide (LPS)-induced Tumor Necrosis Factor alpha (TNFα) levels when administered to male Lewis rats.
Compound 1 was added directly to 100% ethanol. The suspension was vortexed vigorously until all of compound 1 was completely dissolved or fully suspended. The solution was made up to volume in 0.5% methylcellulose. The final concentration of ethanol was 10%.
At time minus 2 hours, rats were administered the appropriate amount of prednisolone and/or compound 1 via oral gavage in a dose volume of 0.25 mL. Untreated control and LPS Control animals received 0.25 mL of the vehicle only.
LPS was prepared at a 100X concentration by resuspension in Phosphate Buffered Saline (PBS). The LPS solution was vortexed vigorously to ensure complete suspension of the LPS. Immediately prior to injection, the LPS was serial diluted in PBS to a 1× working solution.
At time 0, animals were injected via the intraperitoneal route with 1.0 mL of the 1×LPS working solution (final LPS dose is 0.01 mg/Kg body weight) using a 25 gauge needle. Vehicle control animals received 1 mL of PBS.
Blood was expelled into a serum separator tube containing Clot Activator (Becton Dickinson, Franklin Lakes, N.J.). Samples were allowed to sit at room temperature for 30 min prior to spinning at 2000 rpm for 10 min in a bench top centrifuge at room temperature. Serum was transferred to an Eppendorf tube and immediately assayed for TNFα or stored at −80° C. until assayed.
Serum samples were assayed using the BioSource Rat TNFα ELISA kit according to the manufacturer's instructions.
Evaluation of the results included statistical analysis of differences in serum TNFα between treatment and control groups. Group means were compared using a one-way ANOVA. If the ANOVA was significant, p≦0.05, a multiple comparison test (Tukey-Kramer) was used to determine which groups were different.
In general terms: ELISA stands for enzyme-linked immunosorbent assay.

With `Clc1ccc2c(c1)C(N1CCN(CCN3CCOCC3)CC1)=Nc1ccccc1O2` [compound1], the “Serum TNFα ± Standard Error” value (0.3 mg/kg compound 1, oral gavage at minus 2 hours) came out at 13675.6 ± 7606.9; the “Serum TNFα ± Standard Error” value (1 mg/kg compound 1, oral gavage at minus 2 hours) is listed as 12769.1 ± 5231.2; the “Serum TNFα ± Standard Error” value (3 mg/kg compound 1, oral gavage at minus 2 hours) came to 12980.4 ± 6788.4.
In the case of `C[C@]12C=CC(=O)C=C1CC[C@@H]1[C@@H]2[C@@H](O)C[C@@]2(C)[C@H]1CC[C@]2(O)C(=O)CO` [prednisolone, reference compound], the “Serum TNFα ± Standard Error” value is, setting by setting: (0.3 mg/kg prednisolone, oral gavage at minus 2 hours) 11375.9 ± 5238.4; (10 mg/kg prednisolone, oral gavage at minus 2 hours) 6239.3 ± 5020.4.

The record behind these values is patent publication US20060281722A1, “Compounds and uses thereof” (priority 2005, published 2006).
